From patent US8367692B2, “Spiro (piperidine-4,2′-pyrrolidine)-1-(3,5-trifluoromethyl phenyl) methylcarboxamides as NK1 tachikynin receptor antagonists” (Glaxo Wellcome Manufacturing Pte Ltd, priority 2008, dated 2013) come the findings set out here.

One experiment deals with T1, human NK1 receptor (Homo sapiens, UniProt P25103).
T1 construct: expressed in transfected cells; host or cells: human U2OS cells transiently transduced with recombinant BacMam virus
The experiment in a line: NK1 functional assay (B), FLIPR inhibition of intracellular calcium release induced by Substance P. Format: cell-based. Particulars: U2OS cells transduced with BacMam virus expressing human NK1; ligand Substance P; read-out: binding potency pKi in the NK1 functional assay (B) (converted). The text has this:
B) Measurement of NK Functional Potency:
Compounds of the invention were further characterised in a functional assay using FLIPR technology for the determination of their effect to inhibit the intracellular calcium release induced by interaction of NK receptors with its perspective ligands. Human U2OS cells transiently transduced with recombinant BacMam virus expressing human NK1, NK2 and NK3 receptors were used in the studies (see J. P. Condreay et al, Proc. Natl. Acad. Sci. USA 1999, 96(1): 127-132). Briefly, U20S cells were harvested from tissue culture flasks, re-suspended to a cell density of 200-300K/ml and mixed with recombinant BacMam virus carrying NKR gene in a virus/cell ratio of 1% (v/v). 10K-15K cells/well were then seeded in 384-well Greiner bio-one plate in culture medium (DMEM with 10% FBS), incubated overnight in 5% CO2 at 37° C. […] Finally, 10 uL/well of NKR ligands in assay buffer containing 0.1% BSA was added to the cells and fluorescence signal read on a FLIPR system. […] IC50 values of each compound were determined by an 11-point 3×-dilution inhibition curve. The potency each antagonist (fpKi) was calculated from plC50 by the Cheng-Prusoff equation using EC50 of ligand determined in a separate experiment.
(A change in cytosolic calcium serves as a functional read-out for many receptors and channels.)

For the next experiment, the target named is T2, NK1 receptor (Meriones unguiculatus, UniProt Q5DUB1).
T2 construct: from tissue; host or cells: living gerbil, central nervous system (icv agonist challenge)
T2 sequence (Q5DUB1 whole entry): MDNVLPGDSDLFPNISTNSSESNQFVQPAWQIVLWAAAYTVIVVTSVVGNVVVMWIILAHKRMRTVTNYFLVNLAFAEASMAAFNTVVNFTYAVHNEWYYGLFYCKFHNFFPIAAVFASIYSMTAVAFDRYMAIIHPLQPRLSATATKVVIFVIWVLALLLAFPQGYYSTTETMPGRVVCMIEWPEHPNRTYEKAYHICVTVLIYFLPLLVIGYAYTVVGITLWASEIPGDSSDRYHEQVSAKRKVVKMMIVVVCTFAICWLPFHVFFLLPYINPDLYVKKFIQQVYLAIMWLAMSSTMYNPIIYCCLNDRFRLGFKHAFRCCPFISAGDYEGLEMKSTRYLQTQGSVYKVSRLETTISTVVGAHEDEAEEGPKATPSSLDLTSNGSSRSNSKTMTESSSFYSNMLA
In words: Gerbil foot tapping model (GR73632-induced, icv). The format is in vivo. The text has this: The ability of the compounds of the invention to penetrate the central nervous system and to bind at the NK1 receptor may be determined using the gerbil foot tapping model as described by Rupniak & Williams, Eur. Jour. of Pharmacol., 1994.
Intracerebroventricular (icv) administration of the NK1 receptor agonist GR73632 (R. M. Hagan et al., Neuropeptides 1991, 19 (2), 127-135) a characteristic hind leg foot tapping (GFT) response in gerbils which can be inhibited by potent NK1 receptor antagonists. The gerbil foot tapping paradigm was carried out as follows; gerbils were dosed with compound of the invention, and following an appropriate pre-treatment time were anaesthetised using isofluorane/oxygen mixture. The skull was then exposed and 5 ul of GR73632 (3 pmol conc.) was injected by insertion of a cuffed 25G needle to a depth of 4 mm below bregma, directly into the lateral ventricle (intracerebroventricular dosing). Immediately following the injection, gerbils were placed individually into a clear observation box to recover.
Upon the gerbil regaining its righting reflex, the duration of repetitive hind foot tapping was recorded over a 5 minute period. The dose of the test compound required to inhibit by 50% the tapping induced by the NK1 agonist expressed as mg/kg is referred to as the ID50 values.

T1 sequence (P25103 whole entry): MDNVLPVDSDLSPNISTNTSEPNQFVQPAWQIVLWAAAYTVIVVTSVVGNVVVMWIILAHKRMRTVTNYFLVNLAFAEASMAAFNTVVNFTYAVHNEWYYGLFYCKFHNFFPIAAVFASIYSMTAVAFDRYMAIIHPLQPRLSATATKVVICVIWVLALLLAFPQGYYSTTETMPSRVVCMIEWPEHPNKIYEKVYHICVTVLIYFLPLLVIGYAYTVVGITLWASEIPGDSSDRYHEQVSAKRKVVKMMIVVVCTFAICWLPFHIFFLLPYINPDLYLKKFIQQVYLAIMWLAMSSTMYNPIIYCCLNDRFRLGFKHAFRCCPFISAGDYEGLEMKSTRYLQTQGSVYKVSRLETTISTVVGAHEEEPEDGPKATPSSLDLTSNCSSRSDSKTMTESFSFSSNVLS

`Cc1cc(F)ccc1[C@H]1C[C@@]2(CCC(C(N)=O)N2)CCN1C(=O)N(C)[C@H](C)c1cc(C(F)(F)F)cc(C(F)(F)F)c1` (single isomer, unassigned; diastereoisomer 1) [Example 1]: the Ki on human NK1 receptor is under 1 nM. `Cc1cc(F)ccc1[C@H]1C[C@]2(CC[C@H](C(N)=O)N2)CCN1C(=O)N(C)[C@H](C)c1cc(C(F)(F)F)cc(C(F)(F)F)c1.Cl` [Example 4, (2R,5S,7R)—N^8-{(1R)-1-[3,5-bis(trifluoromethyl)phenyl]ethyl}-7-(4-fluoro-2-methylphenyl)-N^8-methyl-1,8-diazaspiro[4.5]decane-2,8-dicarboxamide hydrochloride]: on NK1 receptor (dose range of 0.1 to 10 mg/kg p.o.), the “GR73632-induced Foot Tapping behaviour” value is listed as “significantly attenuated”. For the same molecule, at NK1 receptor (po, read-out: ID50, dose required to inhibit by 50% the tapping induced by the NK1 agonist), the ED50 is about 0.67 mg/kg.
